According to BindingDB's records for doi:10.1124/jpet.102.036376 (University of Arkansas, 2002):

Experiments:
[1] = target: T1, Muscarinic acetylcholine receptor M1 (Rattus norvegicus, UniProt P08482)
T1 sequence (P08482 whole entry): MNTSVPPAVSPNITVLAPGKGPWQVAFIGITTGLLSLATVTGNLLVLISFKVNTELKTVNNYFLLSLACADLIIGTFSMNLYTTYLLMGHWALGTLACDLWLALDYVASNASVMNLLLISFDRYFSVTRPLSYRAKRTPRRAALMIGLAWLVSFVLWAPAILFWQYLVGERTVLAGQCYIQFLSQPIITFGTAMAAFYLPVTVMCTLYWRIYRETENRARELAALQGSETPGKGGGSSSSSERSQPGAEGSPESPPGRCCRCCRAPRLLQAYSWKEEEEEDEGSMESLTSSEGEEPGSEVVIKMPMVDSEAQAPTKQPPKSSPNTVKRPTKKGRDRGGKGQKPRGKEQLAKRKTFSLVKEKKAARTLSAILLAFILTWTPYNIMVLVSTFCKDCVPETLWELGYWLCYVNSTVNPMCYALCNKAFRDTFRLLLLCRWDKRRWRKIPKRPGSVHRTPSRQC

[2] = target: Muscarinic acetylcholine receptor M3 (Rattus norvegicus, UniProt P08483)
[3] = target: T2, Muscarinic acetylcholine receptor M4 (Homo sapiens, UniProt P08173)
T2 sequence (P08173 whole entry): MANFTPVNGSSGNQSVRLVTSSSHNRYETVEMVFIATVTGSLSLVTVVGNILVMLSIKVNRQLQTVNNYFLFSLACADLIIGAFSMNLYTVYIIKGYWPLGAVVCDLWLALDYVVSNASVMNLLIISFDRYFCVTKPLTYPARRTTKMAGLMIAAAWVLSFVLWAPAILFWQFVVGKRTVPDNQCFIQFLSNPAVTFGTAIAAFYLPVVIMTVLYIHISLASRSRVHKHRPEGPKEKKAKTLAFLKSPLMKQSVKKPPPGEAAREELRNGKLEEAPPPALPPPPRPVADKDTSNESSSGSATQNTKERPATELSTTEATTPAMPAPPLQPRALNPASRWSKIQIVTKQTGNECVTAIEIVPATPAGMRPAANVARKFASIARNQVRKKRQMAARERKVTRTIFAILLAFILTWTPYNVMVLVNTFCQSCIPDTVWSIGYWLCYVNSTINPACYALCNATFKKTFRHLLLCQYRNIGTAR

[4] = target: T3, Muscarinic acetylcholine receptor M5 (Homo sapiens, UniProt P08912)
T3 sequence (P08912 whole entry): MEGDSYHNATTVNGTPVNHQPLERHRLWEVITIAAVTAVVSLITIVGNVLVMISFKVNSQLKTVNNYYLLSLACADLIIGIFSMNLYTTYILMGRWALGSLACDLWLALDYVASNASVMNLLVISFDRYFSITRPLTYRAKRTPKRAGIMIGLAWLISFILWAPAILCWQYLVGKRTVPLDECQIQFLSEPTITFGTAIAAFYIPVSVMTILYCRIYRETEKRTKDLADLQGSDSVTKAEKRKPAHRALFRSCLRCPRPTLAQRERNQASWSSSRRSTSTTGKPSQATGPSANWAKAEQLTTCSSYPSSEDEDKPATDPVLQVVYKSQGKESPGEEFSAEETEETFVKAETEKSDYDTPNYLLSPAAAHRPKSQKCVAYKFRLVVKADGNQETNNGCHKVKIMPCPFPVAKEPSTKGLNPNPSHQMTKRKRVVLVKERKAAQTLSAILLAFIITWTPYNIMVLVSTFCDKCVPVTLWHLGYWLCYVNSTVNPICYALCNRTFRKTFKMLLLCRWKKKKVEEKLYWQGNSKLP

Measured: Ki

Muscarinic acetylcholine receptor M3, sequence (P08483 whole entry): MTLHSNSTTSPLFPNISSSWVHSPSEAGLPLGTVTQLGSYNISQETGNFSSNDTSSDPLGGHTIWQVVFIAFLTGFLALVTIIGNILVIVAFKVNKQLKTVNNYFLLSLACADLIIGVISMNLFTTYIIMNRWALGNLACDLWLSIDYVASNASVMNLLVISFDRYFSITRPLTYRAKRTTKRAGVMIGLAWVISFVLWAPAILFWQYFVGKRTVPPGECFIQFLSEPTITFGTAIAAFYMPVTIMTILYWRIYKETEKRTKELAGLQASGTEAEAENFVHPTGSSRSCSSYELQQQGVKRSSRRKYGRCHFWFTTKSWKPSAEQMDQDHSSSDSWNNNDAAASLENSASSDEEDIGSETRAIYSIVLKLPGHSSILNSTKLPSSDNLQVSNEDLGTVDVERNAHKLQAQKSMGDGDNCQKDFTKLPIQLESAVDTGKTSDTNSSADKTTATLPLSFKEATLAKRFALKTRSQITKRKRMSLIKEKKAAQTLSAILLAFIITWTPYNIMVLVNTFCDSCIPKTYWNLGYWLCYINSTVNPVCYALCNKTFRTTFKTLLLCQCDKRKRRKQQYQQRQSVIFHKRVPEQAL

CC(CCC(=O)NCCS(=O)(=O)O)C1CCC2C3CCC4CC(O)CCC4(C)C3CCC12C (stereo unspecified) [NSC_10595]
> 10 µM: [1] | [2]

CC(CCC(=O)NCC(=O)O)C1CCC2C3CCC4CC(O)CCC4(C)C3CCC12C (stereo unspecified) [CAS_115245]
> 10 µM: all assays above
